From patent US11939340B2, “CDK inhibitors and their use as pharmaceuticals” (Prelude Therapeutics Incorporated, priority 2022, dated 2024) come the findings set out here.

One assay concerns the target CDK2/Cyclin E2 (Homo sapiens, UniProt P24941). As to the kind of experiment: CDK2/CyclinE2 Enzymatic Activity Assay (TR-FRET). It is filed as biochemical. The note with it: CDK2/CyclinE2 1 nM, ATP 1 mM, read-out: CDK2_El IC50. Summed up: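 TR-FRET kinase assay with insect-cell CDK2/Cyclin E2 (1 nM) phosphorylating ULight-4E-BP1 (50 nM) at 1 mM ATP in HEPES pH 7.4 buffer; 9-dose 3-fold series preincubated 20 min, reaction started with 10 mM MgCl2, 45 min at 37 °C. EDTA quench, Eu-anti-P-4E-BP1 detection; IC50 from 4-parameter fit.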

Another assay deals with pRB in OVCAR3 cells. The assay is described as follows: pRB ICW Assay in OVCAR3 Cells. It is filed as cell-based. As to conditions: Homo sapiens, OVCAR-3, incubated with compound for 2 hours, read-out: OVCAR3 p-RB ICW IC50. Summed up: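 OVCAR3 cells seeded overnight, then exposed for 2 h at 37 °C to a 9-point half-log compound dilution series in duplicate; 10 μM reference compound defined maximum inhibition. Fixed, permeabilised cells stained in-cell western style with anti-phospho-RB antibody plus DRAQ5 nuclear stain; fluorescence read at 700 and 800 nm.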

In a further assay the target is T1, CDK4/Cyclin D1 (Homo sapiens, UniProt P11802).
T1 construct: purchased ProQinase; host or cells: insect cell
T1 sequence (P11802 whole entry): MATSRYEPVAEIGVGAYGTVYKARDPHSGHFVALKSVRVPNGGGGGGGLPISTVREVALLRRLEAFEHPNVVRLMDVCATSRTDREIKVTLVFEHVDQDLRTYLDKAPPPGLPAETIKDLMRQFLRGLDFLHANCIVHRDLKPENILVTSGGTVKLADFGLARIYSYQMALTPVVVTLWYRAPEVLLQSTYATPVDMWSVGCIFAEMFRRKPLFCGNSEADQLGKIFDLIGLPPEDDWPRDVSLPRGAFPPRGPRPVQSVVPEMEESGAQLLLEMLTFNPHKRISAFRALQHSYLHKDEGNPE
T1 sequence (P24385 whole entry partner): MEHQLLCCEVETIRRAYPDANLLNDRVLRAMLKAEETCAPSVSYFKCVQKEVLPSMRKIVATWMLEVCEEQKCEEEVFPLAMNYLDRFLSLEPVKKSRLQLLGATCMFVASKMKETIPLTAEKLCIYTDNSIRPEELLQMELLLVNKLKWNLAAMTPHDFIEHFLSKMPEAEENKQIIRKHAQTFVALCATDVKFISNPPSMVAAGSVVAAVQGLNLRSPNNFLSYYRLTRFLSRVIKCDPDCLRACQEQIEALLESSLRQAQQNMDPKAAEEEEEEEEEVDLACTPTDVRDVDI
The assay is described as follows: CDK4/CyclinD1 Enzymatic Activity Assay (TR-FRET). The note with it: CDK4/CyclinD1 1 nM, ATP 2 mM, read-out: CDK4_D1 IC50. The assay is classed as biochemical. The method, boiled down:
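Insect-cell-expressed CDK4/Cyclin D1 (1 nM) phosphorylated ULight-4E-BP1 (100 nM) with 2 mM ATP in HEPES pH 7.4 buffer with TCEP, after 20 min compound preincubation; 10 mM MgCl2 started the reaction, run 45 min at 37 °C. EDTA/Eu-anti-phospho-4E-BP1 TR-FRET readout; 9-point IC50 by four-parameter fit.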

In the case of `CC(C)C12CCCCN1C(=O)c1cc(-c3nc(NC4CCN(S(C)(=O)=O)CC4)ncc3C(F)(F)F)sc12` (stereo not drawn) [Example 1, 9a-isopropyl-2-(2-((1-(methylsulfonyl)piperidin-4-yl)amino)-5-(trifluoromethyl)pyrimidin-4-yl)-7,8,9,9a-tetrahydrothieno[2,3-a]indolizin-4(6H)-one], the IC50 at CDK2/Cyclin E2 was at most 100 nM; in the assay on pRB in OVCAR3 cells it was 100 to 500 nM; at CDK4/Cyclin D1, at most 100 nM.
In the case of `CCC12CC(N)CN1C(=O)c1cc(-c3nc(N[C@H]4CCN(S(C)(=O)=O)C[C@H]4C)ncc3C(F)(F)F)sc12` (stereo partly drawn) [Example 45, 7-Amino-8a-ethyl-2-(2-(((3R,4S)-3-methyl-1-(methylsulfonyl)piperidin-4-yl)amino)-5-(trifluoromethyl)pyrimidin-4-yl)-6,7,8,8a-tetrahydro-4H-thieno[2,3-a]pyrrolizin-4-one], the IC50 on CDK2/Cyclin E2, with pRB in OVCAR3 cells and at CDK4/Cyclin D1 was at most 100 nM each time.
`CS(=O)(=O)N1CCC(Nc2ncc(C(F)(F)F)c(-c3cc4c(s3)C3(C5CC5)CCCN3C4=O)n2)CC1` (stereo not drawn) [Example 22, 8a-Cyclopropyl-2-(2-((1-(methylsulfonyl)piperidin-4-yl)amino)-5-(trifluoromethyl)pyrimidin-4-yl)-6,7,8,8a-tetrahydro-4H-thieno[2,3-a]pyrrolizin-4-one]: the IC50 on CDK2/Cyclin E2, in the assay on pRB in OVCAR3 cells and on CDK4/Cyclin D1 was at most 100 nM in each case.
On to `CCC12CC(N(C)C)CN1C(=O)c1cc(-c3nc(NC4CCN(S(=O)(=O)c5cnn(C)c5)CC4)ncc3C(F)(F)F)sc12` (stereo not drawn) [Example 50, 7-(Dimethylamino)-8a-ethyl-2-(2-((1-((1-methyl-1H-pyrazol-4-yl)sulfonyl)piperidin-4-yl)amino)-5-(trifluoromethyl)pyrimidin-4-yl)-6,7,8,8a-tetrahydro-4H-thieno[2,3-a]pyrrolizin-4-one], for which the IC50 on CDK2/Cyclin E2, with pRB in OVCAR3 cells and on CDK4/Cyclin D1 was at most 100 nM in each case.
With `CCC12CC(NC)CN1C(=O)c1cc(-c3nc(N[C@H]4CCN(S(=O)(=O)c5cnn(C)c5)C[C@H]4C)ncc3C(F)(F)F)sc12` (stereo partly drawn) [Example 44, 8a-Ethyl-2-(2-(((3R,4S)-3-methyl-1-((1-methyl-1H-pyrazol-4-yl)sulfonyl)piperidin-4-yl)amino)-5-(trifluoromethyl)pyrimidin-4-yl)-7-(methylamino)-6,7,8,8a-tetrahydro-4H-thieno[2,3-a]pyrrolizin-4-one], the IC50 at CDK2/Cyclin E2, in the assay with pRB in OVCAR3 cells and on CDK4/Cyclin D1 was at most 100 nM throughout.
